For four compounds, ED50 and minimal effective dose results are on record in patent publication US3952050A, “Cyclopent [a] indene compounds” (Allen & Hanburys Limited, priority 1972, dated 1976).

A word on the ED50: it is the dose at which the effect has come halfway, by size or by number of responders.

The structures appear in SMILES notation. Counter-ions that a name gives are not always drawn. A value given as a limit tells only on which side of the number the result lay.

Format in all cases: in vivo
The nature of test [1]: Phenylquinone Writhing test (analgetic action). The note with it: po. The text has this: (§1) Particularly preferred meanings for the groups R1 and R2 are hydrogen C1-4 alkyl, in particular methyl, or benzyl. Particularly preferred meanings for R3 are hydrogen or C1-4alkyl in particular methyl. Particularly preferred meanings for R5 and R6 are hydrogen, C1-4 alkyl substituted by C1-4 alkylamino or by C1-4 dialkylamino or by phenyl or by 4-fluorobenzoyl or in which the groups together with the adjacent nitrogen atom form a morpholino or piperidino moiety; another preferred group for R5 or R6 is carbamoyl (--CONH2). Specific preferred compounds and salts are those the preparation of which is described in the Examples. The compounds of the invention have marked analgetic activity and are devoid of respiratory depressant action. […] These characteristics are often associated with non-narcotic analgetics in man. For example, in Table I, the compound 1,2,3,3aα,8,8aα-hexahydro-N-methylcyclopent[a]inden-1α-amine, maleate (AH 9197) and the diastero-isomer 1,2,3,3aα,-8,8aα-hexahydro-N-methylcyclopent[a]inden-1β-amine maleate (AH 8538) are compared with codeine in standard pharmacological tests for evaluating analgetic action. The N-ethyl analogue of AH 9197 (N-ethyl-1,2,3,3aα,8,8aα-hexahydrocyclopent[a]inden-1α-amine) maleate (AH 9903) is also included.

Test [2] is described as follows: Hot plate test (analgetic action).
Description: as §1
Background: Hot-plate and tail-flick tests time the reaction to a heat stimulus.

Test [3] has as its system Dog Tooth-pulp. Kind of test: Dog Tooth-pulp Stimulation test (analgetic action). The note with it: Canis lupus familiaris, po, read-out: Minimum effective dose, Dog Tooth-pulp Stimulation.
Description: as §1

As for `CN[C@H]1CC[C@@H]2c3ccccc3C[C@H]12` (relative stereo) [Ex. 1, 1,2,3,3aα,8,8aα-Hexahydro-N-methylcyclopent[a]inden-1α-amine, maleate], the 50% effective dose (ED50) in test [1] came out at 7.4 mg/kg; in test [2] (po), 10 mg/kg; in test [2] (sc), 0.44 mg/kg. Further, in test [3], the minimal effective dose was found to be 3.7 mg/kg.

Turning to `CCN[C@H]1CC[C@@H]2c3ccccc3C[C@H]12` (relative stereo) [Ex. 2, N-Ethyl-1,2,3,3aα,8,8aα-hexahydrocyclopent[a]inden-1α-amine, maleate], the ED50 in test [1] came to 4.6 mg/kg; in test [2] (po), 9.5 mg/kg; in test [2] (sc), 2.2 mg/kg. For the same compound, the minimal effective dose in test [3] is < 5 mg/kg.

Turning to `CN[C@@H]1CC[C@@H]2c3ccccc3C[C@@H]21` (relative stereo) [Ex. 3, 1,2,3,3aα,8,8aα -Hexahydro-N-methylcyclopent[a]inden-1β-amine, maleate], the ED50 in test [1] stood at 11.9 mg/kg; in test [2] (sc), 15 mg/kg. Also, in test [3], the minimal effective dose was determined as 5 mg/kg.

`COc1ccc2c3c1O[C@H]1[C@@H](O)C=C[C@H]4[C@@H](C2)N(C)CC[C@@]341` [Codeine, codeine, reference compound]: the ED50 stood at 5.8 mg/kg in test [1], 15.5 mg/kg in test [2] (po) and 11.8 mg/kg in test [2] (sc). In addition, in test [3], the minimal effective dose amounted to 3.3 mg/kg.
